Assay results from patent publication US9290427B2, “Anti-invasive compounds” (Universiteit Gent, priority 2012, dated 2016).

What was measured:
Type in all cases: cell-based, human
[1] = system: MCF-7/6 mammary carcinoma cells; assay: chick heart invasion assay; set-up: unit not given here
From the text: “Anti-invasive” or “anti-invasive activity” is the ability to inhibit the invasiveness of tumor cells. Invasion by tumor cells is defined as the progressive occupation and destruction of their environment, and is the result of matrix degradation and directional cell motility. Anti-invasive activity of a compound is the ability to inhibit or block invasion, and can be assessed by counting the number of invading cells, by the depth of their invasion and/or by the amount of environmental destruction. Many assays in vitro can be applied to test for anti-invasive activity (for a complete list see Bracke et al. 2008). The three most popular ones are: • Chick heart invasion assay (Bracke et al., 2001, see details below). The cut-off value is between grade II (non-invasive) and grade III (invasive). […] Collagen gels, prepared on the bottom of plastic wells are covered with a test cell suspension, and incubated with liquid culture medium for 24 h. Invasion is evaluated with an inverted phase-contrast microscope, and is based on the percentage of cells showing extensions in the gel. […] Matrigel is a mixture of basement membrane components, and is applied as a semi-solid layer on top a filter with pores allowing the transgression of cells. The test cell suspension is seeded on top of the gel, and incubated for 1 day in a two-compartment chamber system. Invasion is then evaluated via the percentage of cells that are attached to the lower side of the filter.
In the chick heart invasion assay cancer cells are confronted with a fragment of normal tissue, so as not to neglect the contribution of the host tissue in the micro-ecosystem that governs tumor behavior. As such, precultured heart tissue fragments (PHFs), dissected from 9-day-old chicken embryos, may be confronted with aggregates of human invasive MCF-7/6 mammary carcinoma cells in the presence of a certain concentration of a test compound. After eight days, the interaction between the cancer cells and the PHF is evaluated histologically and classified along a 5-grades subjective scale (Bracke et al., 2001). Grades III and IV are typical for invasion, while grades 0, I and II correspond to absence of invasion. Compounds that inhibit invasion of confronting cancer cells i.e. from III/IV to 0/I/II, are determined as anti-invasive. Possible alternative assays generally known in the art are the type I collagen invasion assay, wound healing assay and the matrigel invasion assay.
“Anti-invasive” refers to the ability to inhibit invasion of the tumor or cancer cell into surrounding tissue (within or outside the organ of origin). […] This screening method confronts cancer cells with a fragment of normal tissue, so as not to neglect the contribution of the host tissue in the micro-ecosystem that governs tumor behavior. The interaction between the cancer cells and the normal tissue is evaluated histologically and classified along a 5-grades subjective scale. Grades III and IV are typical for invasion, while grades 0, I and II correspond to absence of invasion. Compounds that inhibit invasion of confronting cancer cells i.e. from III/IV to 0/I/II, are determined as anti-invasive. Possible alternative assays generally known in the art are the type I collagen invasion assay and the Matrigel invasion assay.
The potency of these molecules had been evaluated by means of the chick heart invasion assay, as described herein before.

[2] = system: MCF-7/LucF5 cells; assay: SRB test, MCF-7/LucF5
Method: The SRB assay is used to evaluate growth effects on cells, and measures the total protein content. In this test, 5,000 cells are seeded in a cup of a 96-well plate. Upon a 24 h-attachment period, cells are treated with a certain amount of the test molecule (dissolved in DMSO). After a pre-chosen incubation time, cells are fixed with 50 μL of 50% trichloroacetic acid (2° C., 1 h). Afterward, the plate is rinsed five times with tap water, and air dried overnight.
Next, proteins are stained with 75 μL of a 0.4% solution of SRB in AcOH (30 min). Unbound SRB is subsequently removed by washing with a 1% solution of glacial AcOH, whereupon the plate is air dried. Then, bound SRB is redissolved in 100 μL of a 10 mmol·L^−1 tris(hydroxymethyl)aminomethane (Tris) buffer (pH=10.5), after which optical density is determined at 490 nm with a spectrophotometer.
In order to further validate the use of the MCF-7/LucF5 cells in our in vivo experiments, the effects of 4-fluoro-3′,4′,5′-trimethoxychalcone on this cell line in the MTT and SRB assays were determined as well (Van Hoorde L. et al., 1999).

[3] = system: CT5.3 myofibroblasts; assay: MTT test, CT5.3; conditions: 10 μmol·L−1, 24 h
Method: An MTT test provides an indication of cell viability, proliferation and activity through determination of the mitochondrial conversion of 3-(4,5-dimethylthiazol-2-yl)-2,5-diphenyltetrazolium bromide (MTT), a yellow salt, into formazan, a salt that precipitates under the form of blue crystals.
In concreto, 5,000 cells are seeded in a cup of a 96 well-plate, treated with the desired amount of the test substance, and incubated for a chosen period of time. Next, 40 μL of a filtered (0.2 μm) 5 mg·mL^−1 solution of MTT in PBS is added to the cup. After 2 h of incubation at 37° C. in the dark, all liquid is removed. The obtained formazan salts are dissolved in 200 μL of DMSO, whereupon optical density is measured at 490 nm.
In order to verify whether the antiproliferative effects of compound 49, witnessed in BLM and MCF-7/6 cells at high concentrations, were cell specific, additional SRB and MTT assays on a further five cell lines (HCT8-E11, TR146, FaDu, 3T3-L1 and CT5.3) were conducted (FIG. 8). The results for MCF-7/6 cells were added to facilitate comparison.
The CT5.3 cell line consists of human myofibroblasts which were isolated from a colon tumor (Van Hoorde et al., 1999). 3T3-L1 cells are murine fibroblasts, originating from embryo's of Swiss mice (Todaro and Green, 1963). HCT8-E11, FaDu and TR146 are human epithelial cancer cell lines. […]

For `COc1cc(C(=O)/C=C/c2ccc(F)cc2)cc(OC)c1OC` [Compound 49, (2E)-3-(4-Fluorophenyl)-1-(3,4,5-trimethoxyphenyl)propenone], the “Actual in vitro activity class” value ([1]; compounds 37-51, Table 11) was −2 (about 0.01), the Actual class ([1]; training set compounds 37-51, class = log cmin, lowest concentration with invasion grade I or II) was −2 (about 0.01) and the cell count ([2]; 1 and 0.1 μmol·L−1, 72 h (p=0.0703 and 0.0538)) was “marginally significant reduction”. The total protein content ([2]; 100 or 10 μmol·L−1, 72 h (p=0)) was “significant reduction”, the “reduction in total protein content” value ([2]; elevated concentrations 10-100 μmol·L−1, summary) was about 50% and the “decrease in mitochondrial activity” value [3] was 22%.
